What was measured:
Format in all cases: in vivo
[1] = tested on: AMBROSIA ARTEMISIIFOLIA, L.; test: Postemergence herbicidal evaluation, AMBEL (Ragweed, Common)
Procedure, shortened: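 Postemergence herbicidal activity on AMBEL (common ragweed) was assessed on two-week-old seedlings grown in jiffy flats. Treatment solutions of 50/50 acetone/water with 0.5% TWEEN®20 surfactant were sprayed at 40 psi. After four to five weeks in the greenhouse, plants were scored 0-9 against a control for stand, vigor, malformation, size, chlorosis and overall appearance, with multiple tests averaged.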

[2] = tested on: TRITICUM AESTIVUM, CV. APOLLO; test: Postemergence herbicidal evaluation, TRZAWO (Wheat, Winter, CV. APOLLO)
Procedure, shortened: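 This greenhouse postemergence test applied compounds to roughly two-week-old wheat seedlings grown in jiffy flats. The spray solution was 50/50 acetone/water with 0.5% TWEEN®20, a polyoxyethylene sorbitan monolaurate, sprayed from a nozzle run at 40 psi. After four to five weeks of standard greenhouse care, injury was scored from 0 to 9 by comparing stand, vigor, malformation, size, chlorosis and overall appearance with a control. Multiple tests were averaged.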

[3] = tested on: ECHINOCHLOA CRUS-GALLI, (L) BEAU; test: Postemergence herbicidal evaluation, ECHCG (Barnyardgrass); set-up: key to ECHCG rating / Herbicidal effect rating, ECHCG / ECHCG: 0-9 visual rating scale vs untreated control
Procedure, shortened: (§1)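 Application to seedlings around two weeks old: test compound in 50/50 acetone/water, 0.5% TWEEN 20, sprayed at 40 psi for roughly 0.125–0.500 kg/ha. Evaluation: 0–9 visual scale after 4–5 weeks, replicates averaged.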

[4] = tested on: SETARIA VIRIDIS, (L) BEAU; test: Postemergence herbicidal evaluation, SETVI (Foxtail, Green); set-up: key to SETVI rating / Herbicidal effect rating, SETVI / SETVI: 0-9 visual rating scale vs untreated control; conditions: for SETVI, herbicide rating (0-9): rated four to five weeks after treatment, averaged
Procedure, shortened: as §1

CHENOPODIUM ALBUM, L. [5] = test: Postemergence herbicidal evaluation, CHEAL (Lambsquarters, Common)
Procedure, shortened: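 Postemergence herbicidal activity on Chenopodium album was tested by spraying two-week-old seedlings grown in jiffy flats with compound in acetone/water (50/50) plus 0.5% TWEEN®20, using a 40 psi nozzle. Four to five weeks after treatment, stand, vigor, malformation, size, chlorosis and overall appearance were scored 0-9 relative to controls, with repeat tests averaged.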

CHENOPODIUM ALBUM, L. [6] = test: Preemergence herbicidal evaluation, CHEAL (Lambsquarters, Common); conditions: four to five weeks after treatment
Procedure, shortened: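 Rated 0-9 by visual comparison with control (stand, vigor, malformation, size, chlorosis, overall appearance) four to five weeks after preemergence soil spray. Dose equivalent to about 0.125 to 0.50 kg per hectare, applied in aqueous acetone to freshly seeded cups kept in greenhouse.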

ZEA MAYS L. = test: Postemergence herbicidal evaluation, ZEAMX (Corn, Field); conditions: for ZEAMX, herbicide rating (0-9): crop, rated four to five weeks after treatment, averaged
Procedure, shortened: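 This greenhouse postemergence test treated corn plants about two weeks old. Compounds in a 50/50 acetone/water mixture with 0.5% TWEEN®20 were applied through a spray nozzle at 40 psi. After four to five weeks, injury was scored 0-9 against an untreated control, judging stand, vigor, malformation, size, chlorosis and overall appearance. Repeated tests were averaged.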

GALIUM APARINE = test: Postemergence herbicidal evaluation, GALAP (Galium); set-up: key to GALAP rating / Herbicidal effect rating, GALAP / GALAP: 0-9 visual rating scale vs untreated control
Procedure, shortened: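 In this postemergence greenhouse test, two-week-old Galium aparine seedlings grown in jiffy flats received a 40 psi spray of compound in acetone/water (50/50) with 0.5% TWEEN®20 surfactant. After four to five weeks, stand, vigor, malformation, size, chlorosis and overall appearance were compared with untreated controls on a 0-9 scale, averaging multiple tests.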

IPOMOEA SPP. = test: Postemergence herbicidal evaluation, IPOSS (Morningglory spp.); conditions: for IPOSS, herbicide rating (0-9): rated four to five weeks after treatment, averaged
Procedure, shortened: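 In this greenhouse postemergence herbicide test on Ipomoea spp. (morningglory), compounds in 50/50 acetone/water with 0.5% TWEEN®20 were sprayed at 40 psi onto seedlings about two weeks old grown in jiffy flats. After four to five weeks, injury was scored on a 0-9 scale covering stand, vigor, malformation, size, chlorosis and overall appearance versus control, with repeat tests averaged.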

[7] = tested on: ORYZA SATIVA, L. TEBONNET; test: Rice tolerance to post-transplant applications under flooded paddy conditions, ORYSAT (Rice, Tebonnet); conditions: for ORYSAT herbicidal rating (rice tolerance): post-transplant rice, rated three to four weeks after treatment; for ORYSAT: post-transplanted rice;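 on ORYSAT herbicidal rating (rice tolerance): applied to flooded soil surface three days after transplanting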
Procedure, shortened: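 Rated on a visual 0–9 scale against untreated plants 3–4 weeks after application, rice (cv. Tebonnet) tolerance was tested by applying compounds (approx. 0.5–0.063 kg/ha, acetone/water 50/50) to flooded soil three days post-transplant, water kept 1.5–3 cm deep.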

[8] = tested on: ABUTILON THEOPHRASTI, MEDIC.; test: Postemergence herbicidal evaluation, ABUTH (Velvetleaf); conditions: for ABUTH, herbicide rating (0-9): rated four to five weeks after treatment, averaged
Procedure, shortened: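 This postemergence herbicide test used two-week-old velvetleaf seedlings grown in jiffy flats. Each compound was sprayed at 40 psi as a dispersion in 50/50 acetone/water with 0.5% TWEEN®20 surfactant. Plants then received routine greenhouse care. After four to five weeks, injury was scored visually on a 0-9 scale against a control, and replicate tests were averaged.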

COC(=O)Cn1c(=O)n(C)c(=O)n(-c2cc(Oc3c(F)cc(C(F)(F)F)cc3Cl)ccc2F)c1=O [Compound 4, Methyl 3-{5-[(2-chloro-α,α,α,6-tetrafluoro-p-tolyl)oxy]-2-fluorophenyl}tetrahydro-5-methyl-2,4,6-trioxo-s-triazine-1(2H)-acetate]
Herbicidal effect rating, AMBEL ([1]; 0.031 kg/ha): 7.2
Herbicidal effect rating, AMBEL ([1]; 0.063 kg/ha): 8.0
Herbicidal effect rating, AMBEL ([1]; 0.125 kg/ha): 8.5
Herbicidal effect rating, AMBEL ([1]; 0.250 kg/ha): 8.9
Herbicidal effect rating, TRZAWO ([2]; 0.031 kg/ha): 6.3
Herbicidal effect rating, TRZAWO ([2]; 0.063 kg/ha): 7.3
Herbicidal effect rating, TRZAWO ([2]; 0.125 kg/ha): 8.1
Herbicidal effect rating, TRZAWO ([2]; 0.250 kg/ha): 8.2
Herbicidal effect rating, ECHCG ([3]; 0.031 kg/ha): 3.8
Herbicidal effect rating, ECHCG ([3]; 0.063 kg/ha): 6.0
Herbicidal effect rating, ECHCG ([3]; 0.125 kg/ha): 8.2
Herbicidal effect rating, ECHCG ([3]; 0.250 kg/ha): 8.9
Herbicidal effect rating, SETVI ([4]; 0.031 kg/ha): 6.9
Herbicidal effect rating, SETVI ([4]; 0.063 kg/ha): 8.6
Herbicidal effect rating, SETVI ([4]; 0.125 kg/ha): 9.0
Herbicidal effect rating, SETVI ([4]; 0.250 kg/ha): 9.0
SETVI, herbicide rating (0-9) ([4]; Rate 0.125 kg/ha): 9.0
SETVI, herbicide rating (0-9) ([4]; Rate 0.250 kg/ha): 9.0
SETVI, herbicide rating (0-9) ([4]; Rate 0.500 kg/ha): 9.0
Herbicidal effect rating, CHEAL (CHENOPODIUM ALBUM, L. [5]; 0.031 kg/ha): 7.9
Herbicidal effect rating, CHEAL (CHENOPODIUM ALBUM, L. [5]; 0.063 kg/ha): 8.8
Herbicidal effect rating, CHEAL (CHENOPODIUM ALBUM, L. [5]; 0.125 kg/ha): 8.9
Herbicidal effect rating, CHEAL (CHENOPODIUM ALBUM, L. [5]; 0.250 kg/ha): 9.0
CHEAL rating (CHENOPODIUM ALBUM, L. [6]; Rate 0.125 kg/ha): 9.0
CHEAL rating (CHENOPODIUM ALBUM, L. [6]; Rate 0.250 kg/ha): 9.0
CHEAL rating (CHENOPODIUM ALBUM, L. [6]; Rate 0.500 kg/ha): 9.0
Herbicidal effect rating, ZEAMX (ZEA MAYS L.; 0.031 kg/ha): 8.1
Herbicidal effect rating, ZEAMX (ZEA MAYS L.; 0.063 kg/ha): 8.7
Herbicidal effect rating, ZEAMX (ZEA MAYS L.; 0.125 kg/ha): 8.9
Herbicidal effect rating, ZEAMX (ZEA MAYS L.; 0.250 kg/ha): 8.9
ZEAMX, herbicide rating (0-9) (ZEA MAYS L.; Rate 0.125 kg/ha): 8.8
ZEAMX, herbicide rating (0-9) (ZEA MAYS L.; Rate 0.250 kg/ha): 8.8
ZEAMX, herbicide rating (0-9) (ZEA MAYS L.; Rate 0.500 kg/ha): 8.8
Herbicidal effect rating, GALAP (GALIUM APARINE; 0.031 kg/ha): 7.3
Herbicidal effect rating, GALAP (GALIUM APARINE; 0.063 kg/ha): 8.4
Herbicidal effect rating, GALAP (GALIUM APARINE; 0.125 kg/ha): 8.8
Herbicidal effect rating, GALAP (GALIUM APARINE; 0.250 kg/ha): 8.1
Herbicidal effect rating, IPOSS (IPOMOEA SPP.; 0.031 kg/ha): 8.9
Herbicidal effect rating, IPOSS (IPOMOEA SPP.; 0.063 kg/ha): 8.9
Herbicidal effect rating, IPOSS (IPOMOEA SPP.; 0.125 kg/ha): 9.0
Herbicidal effect rating, IPOSS (IPOMOEA SPP.; 0.250 kg/ha): 9.0
IPOSS, herbicide rating (0-9) (IPOMOEA SPP.; Rate 0.125 kg/ha): 9.0
IPOSS, herbicide rating (0-9) (IPOMOEA SPP.; Rate 0.250 kg/ha): 9.0
IPOSS, herbicide rating (0-9) (IPOMOEA SPP.; Rate 0.500 kg/ha): 9.0
ORYSAT herbicidal rating (rice tolerance) ([7]; Rate 0.063 kg/ha): 2.0
ORYSAT herbicidal rating (rice tolerance) ([7]; Rate 0.125 kg/ha): 3.2
ORYSAT herbicidal rating (rice tolerance) ([7]; Rate 0.250 kg/ha): 3.8
ORYSAT herbicidal rating (rice tolerance) ([7]; Rate 0.500 kg/ha): 4.7
ORYSAT ([7]; Rate 0.031 kg/ha): 1.6
ORYSAT ([7]; Rate 0.063 kg/ha): 2.1
ORYSAT ([7]; Rate 0.125 kg/ha): 3.6
ORYSAT ([7]; Rate 0.250 kg/ha): 3.7
Herbicidal effect rating, ABUTH ([8]; 0.031 kg/ha): 8.9
Herbicidal effect rating, ABUTH ([8]; 0.063 kg/ha): 8.9
Herbicidal effect rating, ABUTH ([8]; 0.125 kg/ha): 9.0
Herbicidal effect rating, ABUTH ([8]; 0.250 kg/ha): 9.0
ABUTH, herbicide rating (0-9) ([8]; Rate 0.125 kg/ha): 9.0
ABUTH, herbicide rating (0-9) ([8]; Rate 0.250 kg/ha): 9.0
ABUTH, herbicide rating (0-9) ([8]; Rate 0.500 kg/ha): 9.0
